This is an account of results in US20160046618A1, “Cyclopropyl Fused Thiazin-2-Amine Compounds as Beta-Secretase Inhibitors and Methods of Use” (AMGEN INC., priority 2014, published 2016).

One test deals with human recombinant BACE1 (Homo sapiens (Human), UniProt P56817). The experiment in a line: In vitro enzymatic BACE1 FRET assay. In kind it is biochemical. The note with it: read-out: IC50 IP (μM) BACE1 enzyme. The method, boiled down: (§1)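 FRET cleavage assay using Ni-NTA-purified recombinant protease and 50 nM quenched peptide substrate, 1 h. Stopped by neutralising with Tris; fluorescence at 488/590 nm.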

The target in another test is human recombinant BACE2 (Homo sapiens (Human), UniProt Q9Y5Z0). The experiment in a line: In vitro enzymatic BACE2 FRET assay. In kind it is biochemical. Particulars: read-out: IC50 IP (μM) BACE2 enzyme. The method, boiled down: as §1
Test [1] deals with Aβ40 in conditioned medium of cells stably expressing Amyloid Precursor Protein (APP). Put plainly: In vitro BACE-1 cell-based assay (Aβ40 sandwich ELISA). The note with it: read-out: IC50 IP (μM) BACE1 cell. The method, boiled down:
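APP-stable cells, pre-cultured 24 h at 37° C in DMEM/10% FBS, were treated 24 h with compound in a 10-point series starting at 100 μM or 10 μM (0.1% DMSO final). Secreted Aβ40 in conditioned medium was measured by pAb40/biotin-6E10 sandwich ELISA with Europium time-resolved fluorescence; IC50 from percent inhibition versus concentration.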
A general note: In an ELISA, binding on a coated surface is turned into a signal by an enzyme label.

A further test has as its target Recombinant Cat D (Homo sapiens (Human), UniProt P07339). The experiment in a line: In vitro enzymatic Cathepsin D (Cat D) FRET assay. It counts as biochemical. The note with it: read-out: IC50 IP (μM) CatD. The method, boiled down:
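Assay pH is 3.5 (0.05 M citrate, 5 mM CHAPS, 10% DMSO final) with Cat D from CHO cells. A 20 nM quenched peptide substrate is cleaved over one hour; the reaction is ended with Tris and read by fluorescence (ex 500, em 580 nm).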

Chain of human recombinant BACE2 (Q9Y5Z0 63-518): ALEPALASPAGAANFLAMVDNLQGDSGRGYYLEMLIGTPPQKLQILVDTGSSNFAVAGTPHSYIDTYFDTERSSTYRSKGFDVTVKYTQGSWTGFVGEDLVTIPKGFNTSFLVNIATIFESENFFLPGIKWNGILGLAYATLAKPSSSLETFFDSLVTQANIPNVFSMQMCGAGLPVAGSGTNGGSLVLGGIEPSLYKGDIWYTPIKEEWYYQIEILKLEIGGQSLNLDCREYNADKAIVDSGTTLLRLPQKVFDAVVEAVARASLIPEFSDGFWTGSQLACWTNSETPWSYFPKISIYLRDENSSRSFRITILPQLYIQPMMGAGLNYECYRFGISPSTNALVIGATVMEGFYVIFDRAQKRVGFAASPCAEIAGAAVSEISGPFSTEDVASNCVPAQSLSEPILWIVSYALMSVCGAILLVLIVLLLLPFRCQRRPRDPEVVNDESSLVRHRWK
Chain of human recombinant BACE1 (P56817 46-501): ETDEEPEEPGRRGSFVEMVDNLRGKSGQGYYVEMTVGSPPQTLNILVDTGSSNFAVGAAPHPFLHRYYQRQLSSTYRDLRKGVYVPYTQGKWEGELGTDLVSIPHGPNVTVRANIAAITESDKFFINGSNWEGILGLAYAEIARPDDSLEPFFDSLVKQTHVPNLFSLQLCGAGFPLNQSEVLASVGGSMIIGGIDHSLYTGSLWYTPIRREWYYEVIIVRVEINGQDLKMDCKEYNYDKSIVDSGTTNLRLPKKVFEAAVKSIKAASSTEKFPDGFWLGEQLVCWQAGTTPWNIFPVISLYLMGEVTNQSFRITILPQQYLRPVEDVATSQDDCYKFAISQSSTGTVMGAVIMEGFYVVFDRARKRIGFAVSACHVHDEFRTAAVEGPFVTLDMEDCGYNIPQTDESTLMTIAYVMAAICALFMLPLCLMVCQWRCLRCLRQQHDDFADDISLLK
Chain of Recombinant Cat D (P07339 65-412): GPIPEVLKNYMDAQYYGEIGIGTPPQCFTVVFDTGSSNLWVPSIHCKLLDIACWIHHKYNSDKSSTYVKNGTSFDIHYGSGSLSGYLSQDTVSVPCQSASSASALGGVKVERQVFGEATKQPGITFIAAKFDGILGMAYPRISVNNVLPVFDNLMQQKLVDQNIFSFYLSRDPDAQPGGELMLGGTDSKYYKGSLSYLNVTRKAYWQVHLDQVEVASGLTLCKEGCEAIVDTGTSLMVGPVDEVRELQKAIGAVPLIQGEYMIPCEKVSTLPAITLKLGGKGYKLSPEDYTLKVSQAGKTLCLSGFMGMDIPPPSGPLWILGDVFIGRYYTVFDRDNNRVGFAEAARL

`C[C@]1(c2cc(Nc3nccc4nc(OCCN5CCCC5=O)cnc34)cc(F)c2F)N=C(N)S[C@@]2(C(F)F)C[C@@H]12` [Example 893, 1-(2-((5-((3-((1S,5S,6S)-3-amino-1-(difluoromethyl)-5-methyl-2-thia-4-azabicyclo[4.1.0]hept-3-en-5-yl)-4,5-difluorophenyl)amino)pyrido[3,4-b]pyrazin-2-yl)oxy)ethyl)-2-pyrrolidinone]: the IC50 amounted to 0.149 µM on human recombinant BACE1, 3.86 µM on human recombinant BACE2, 1.66 µM in test [1] and 518 µM on Recombinant Cat D.

For the compound `COC[C@H](C)Oc1cnc2c(Nc3cc(F)c(F)c([C@@]4(C)N=C(N)S[C@@]5(C(F)F)C[C@@H]45)c3)nccc2n1` [Example 894, N-(3-((1S,5S,6S)-3-amino-1-(difluoromethyl)-5-methyl-2-thia-4-azabicyclo[4.1.0]hept-3-en-5-yl)-4,5-difluorophenyl)-2-((1S)-2-methoxy-1-methylethoxy)pyrido[3,4-b]pyrazin-5-amine], the IC50 on human recombinant BACE1 is 0.00372 µM; at human recombinant BACE2, 0.464 µM; in test [1], 0.05 µM; on Recombinant Cat D it was more than 133 µM.

As to `COc1cnc2c(Nc3cc(F)c(F)c([C@@]4(C)N=C(N)S[C@@]5(C(F)F)C[C@@H]45)c3)nccc2n1` [Example 895, N-(3-((1S,5S,6S)-3-amino-1-(difluoromethyl)-5-methyl-2-thia-4-azabicyclo[4.1.0]hept-3-en-5-yl)-4,5-difluorophenyl)-2-methoxypyrido[3,4-b]pyrazin-5-amine], the IC50 at human recombinant BACE1 stood at 0.0053 µM; on human recombinant BACE2 it was 0.0254 µM; in test [1], 0.113 µM; at Recombinant Cat D, 167 µM.

For the compound `C[C@]1(c2cc(Nc3nccc4[nH]c(=O)cnc34)cc(F)c2F)N=C(N)S[C@@]2(C(F)F)C[C@@H]12` [Example 896, 5-((3-((1S,5S,6S)-3-amino-1-(difluoromethyl)-5-methyl-2-thia-4-azabicyclo[4.1.0]hept-3-en-5-yl)-4,5-difluorophenyl)amino)pyrido[3,4-b]pyrazin-2(1H)-one], the IC50 on human recombinant BACE1 turned out to be 0.018 µM; at human recombinant BACE2, 0.0223 µM; in test [1] it was 0.135 µM; at Recombinant Cat D, 128 µM.

On to `COc1cnc2c(Nc3cc(F)c(F)c([C@@]4(C)N=C(N)S[C@H]5C[C@H]54)c3)ncnc2c1` [Example 897, N-(3-((1S,5S,6S)-3-amino-5-methyl-2-thia-4-azabicyclo[4.1.0]hept-3-en-5-yl)-4,5-difluorophenyl)-7-methoxypyrido[3,2-d]pyrimidin-4-amine], for which the IC50 at human recombinant BACE1 worked out at 0.035 µM; on human recombinant BACE2, 0.184 µM; in test [1], 0.038 µM; at Recombinant Cat D it was 1440 µM.

As for `COC(=O)[C@]12C[C@H]1[C@@](C)(c1cc(NC(=O)c3ccc(Cl)cn3)cc(F)c1F)N=C(N)S2` [Example 898, (1S,5S,6S)-methyl 3-amino-5-(5-(5-chloropicolinamido)-2,3-difluorophenyl)-5-methyl-2-thia-4-azabicyclo[4.1.0]hept-3-ene-1-carboxylate], the IC50 at human recombinant BACE1 came out at 0.00454 µM; on human recombinant BACE2, 0.00268 µM; in test [1] it was 0.111 µM; at Recombinant Cat D, 673 µM.

As for `COc1cnc2c(Nc3cc(F)c(F)c([C@@]4(C)N=C(N)S[C@H]5C[C@H]54)c3)nccc2n1` [Example 900, N-(3-((1S,5S,6S)-3-amino-5-methyl-2-thia-4-azabicyclo[4.1.0]hept-3-en-5-yl)-4,5-difluorophenyl)-2-methoxypyrido[3,4-b]pyrazin-5-amine], the IC50 at human recombinant BACE1 was 0.0324 µM; at human recombinant BACE2, 0.0972 µM; in test [1], 0.195 µM; at Recombinant Cat D, 559 µM.

In the case of `CON(C)C(=O)[C@]12C[C@H]1[C@@](C)(c1cc(Nc3ncnc4cc(Cl)cnc34)cc(F)c1F)N=C(N)S2` [Example 901, (1S,5S,6S)-3-amino-5-(5-((7-chloropyrido[3,2-d]pyrimidin-4-yl)amino)-2,3-difluorophenyl)-N-methoxy-N,5-dimethyl-2-thia-4-azabicyclo[4.1.0]hept-3-ene-1-carboxamide], the IC50 at human recombinant BACE1 turned out to be 0.00192 µM; at human recombinant BACE2 it was 0.00203 µM; in test [1], 0.0167 µM; at Recombinant Cat D, 603 µM.

`CC(=O)[C@]12C[C@H]1[C@@](C)(c1cc(Nc3ncnc4cc(Cl)cnc34)cc(F)c1F)N=C(N)S2` [Example 902, 1-((1S,5S,6S)-3-amino-5-(5-((7-chloropyrido[3,2-d]pyrimidin-4-yl)amino)-2,3-difluorophenyl)-5-methyl-2-thia-4-azabicyclo[4.1.0]hept-3-en-1-yl)ethanone]: the IC50 on human recombinant BACE1 came to 0.0148 µM; at human recombinant BACE2, 0.0125 µM; in test [1], 0.0796 µM; at Recombinant Cat D, 479 µM.

On to `CC#CCOc1cnc2c(Nc3cc(F)c(F)c([C@@]4(C)N=C(N)S[C@@]5(COC)C[C@H]54)c3)nccc2c1` [Example 903, N-(3-((1S,5S,6S)-3-amino-1-(methoxymethyl)-5-methyl-2-thia-4-azabicyclo[4.1.0]hept-3-en-5-yl)-4,5-difluorophenyl)-3-(2-butyn-1-yloxy)-1,7-naphthyridin-8-amine], for which the IC50 stood at 0.00195 µM at human recombinant BACE1, 0.109 µM at human recombinant BACE2, 0.00785 µM in test [1] and 1220 µM on Recombinant Cat D.

With `CC(=O)[C@]12C[C@H]1[C@@](C)(c1cc(Nc3ncnc4cc(C#N)cnc34)cc(F)c1F)N=C(N)S2` [Example 904, 4-((3-((1S,5S,6S)-1-acetyl-3-amino-5-methyl-2-thia-4-azabicyclo[4.1.0]hept-3-en-5-yl)-4,5-difluorophenyl)amino)pyrido[3,2-d]pyrimidine-7-carbonitrile], the IC50 on human recombinant BACE1 stood at 0.0141 µM; at human recombinant BACE2, 0.0355 µM; in test [1] it was 0.0132 µM; on Recombinant Cat D, 380 µM.

With `CC(=O)[C@]12C[C@H]1[C@@](C)(c1cc(NC(=O)c3ccc(Cl)cn3)cc(F)c1F)N=C(N)S2` [Example 906, N-(3-((1S,5S,6S)-1-acetyl-3-amino-5-methyl-2-thia-4-azabicyclo[4.1.0]hept-3-en-5-yl)-4,5-difluorophenyl)-5-chloro-2-pyridinecarboxamide], the 50% inhibitory concentration (IC50) at human recombinant BACE1 was 0.00404 µM; on human recombinant BACE2 it was 0.00174 µM; in test [1] it was 0.014 µM; at Recombinant Cat D, 693 µM.

For the compound `C[C@H](O)[C@]12C[C@H]1[C@@](C)(c1cc(Nc3ncnc4cc(C#N)cnc34)cc(F)c1F)N=C(N)S2` [Example 907, 4-((3-((1S,5S,6S)-3-amino-1-(1-hydroxyethyl)-5-methyl-2-thia-4-azabicyclo[4.1.0]hept-3-en-5-yl)-4,5-difluorophenyl)amino)pyrido[3,2-d]pyrimidine-7-carbonitrile], the IC50 on human recombinant BACE1 came out at 0.00747 µM; on human recombinant BACE2 it was 0.0102 µM; in test [1], 0.00413 µM; at Recombinant Cat D, 381 µM.

Regarding `C[C@@H](O)[C@]12C[C@H]1[C@@](C)(c1cc(Nc3ncnc4cc(C#N)cnc34)cc(F)c1F)N=C(N)S2` [Example 908], the IC50 at human recombinant BACE1 was 0.00801 µM; at human recombinant BACE2, 0.0255 µM; in test [1], 0.00812 µM; on Recombinant Cat D, 360 µM.

For `CC(C)(O)[C@]12C[C@H]1[C@@](C)(c1cc(Nc3ncnc4cc(C#N)cnc34)cc(F)c1F)N=C(N)S2` [Example 909, 4-((3-((1S,5S,6S)-3-amino-1-(1-hydroxy-1-methylethyl)-5-methyl-2-thia-4-azabicyclo[4.1.0]hept-3-en-5-yl)-4,5-difluorophenyl)amino)pyrido[3,2-d]pyrimidine-7-carbonitrile], the IC50 stood at 0.0257 µM at human recombinant BACE1, 0.183 µM at human recombinant BACE2, 0.0144 µM in test [1] and 6.84 µM on Recombinant Cat D.

For the compound `C#CCOc1cnc2c(Nc3cc(F)c(F)c([C@@]4(C)N=C(N)S[C@@]5(C(=O)N(C)C)C[C@H]54)c3)nccc2n1` [Example 912, (1S,5S,6S)-3-amino-5-(2,3-difluoro-5-((2-(2-propyn-1-yloxy)pyrido[3,4-b]pyrazin-5-yl)amino)phenyl)-N,N,5-trimethyl-2-thia-4-azabicyclo[4.1.0]hept-3-ene-1-carboxamide], the IC50 is 0.000467 µM on human recombinant BACE1, 0.00101 µM on human recombinant BACE2, 0.000795 µM in test [1] and more than 400 µM on Recombinant Cat D.

As to `C#CCOc1cnc(C(=O)Nc2cc(F)c(F)c([C@@]3(C)N=C(N)S[C@@]4(C(=O)NC)C[C@H]43)c2)cn1` [Example 914, (1S,5S,6S)-3-amino-5-(2,3-difluoro-5-(((5-(2-propyn-1-yloxy)-2-pyrazinyl)carbonyl)amino)phenyl)-N,5-dimethyl-2-thia-4-azabicyclo[4.1.0]hept-3-ene-1-carboxamide], the IC50 turned out to be 0.000464 µM on human recombinant BACE1, 0.0108 µM at human recombinant BACE2, 0.000534 µM in test [1] and 79.4 µM at Recombinant Cat D.

Take `C#CCOc1cnc2c(Nc3cc(F)c(F)c([C@@]4(C)N=C(N)S[C@@]5(C#N)C[C@H]54)c3)nccc2n1` [Example 916, (1S,5S,6S)-3-amino-5-(2,3-difluoro-5-((2-(2-propyn-1-yloxy)pyrido[3,4-b]pyrazin-5-yl)amino)phenyl)-5-methyl-2-thia-4-azabicyclo[4.1.0]hept-3-ene-1-carbonitrile]: the IC50 at human recombinant BACE1 stood at 0.000515 µM; on human recombinant BACE2 it was 0.00399 µM; in test [1], 0.00974 µM; on Recombinant Cat D, 84.2 µM.

Broadly, the IC50 is the concentration that gives 50% inhibition.
